For one series, the species on record is Homo sapiens. The experiment in a line: Selectivity ratio, IC50 for human CYP11B1 to IC50 for human CYP11B2.
Series [1] has as its target T1, Cytochrome P450 11B1, mitochondrial (Homo sapiens, UniProt P15538).
T1 sequence (P15538 whole entry): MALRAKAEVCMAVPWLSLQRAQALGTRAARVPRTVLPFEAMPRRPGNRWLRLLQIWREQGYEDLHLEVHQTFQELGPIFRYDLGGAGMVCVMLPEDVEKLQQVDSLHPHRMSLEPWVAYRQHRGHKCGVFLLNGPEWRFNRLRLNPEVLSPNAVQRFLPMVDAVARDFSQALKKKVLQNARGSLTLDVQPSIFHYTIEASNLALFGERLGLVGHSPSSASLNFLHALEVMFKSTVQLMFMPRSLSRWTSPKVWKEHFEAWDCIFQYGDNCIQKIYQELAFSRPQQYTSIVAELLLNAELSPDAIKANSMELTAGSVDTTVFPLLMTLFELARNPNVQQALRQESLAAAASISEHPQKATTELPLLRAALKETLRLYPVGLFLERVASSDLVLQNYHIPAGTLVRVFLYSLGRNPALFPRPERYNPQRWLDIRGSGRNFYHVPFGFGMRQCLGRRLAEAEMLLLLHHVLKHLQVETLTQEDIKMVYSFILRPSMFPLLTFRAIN

Series [2] can be described thus: Terminal half life in Wistar rat at 25 mg/kg, po. In kind it is ADME, organism-based. On the set-up: dose 25 mg/kg, route oral. The note with it: in vivo, read-out: beta t1/2 (converted).
Series [3] deals with T2, Cytochrome P450 11B2, mitochondrial (Homo sapiens, UniProt P19099).
T2 sequence (P19099 whole entry): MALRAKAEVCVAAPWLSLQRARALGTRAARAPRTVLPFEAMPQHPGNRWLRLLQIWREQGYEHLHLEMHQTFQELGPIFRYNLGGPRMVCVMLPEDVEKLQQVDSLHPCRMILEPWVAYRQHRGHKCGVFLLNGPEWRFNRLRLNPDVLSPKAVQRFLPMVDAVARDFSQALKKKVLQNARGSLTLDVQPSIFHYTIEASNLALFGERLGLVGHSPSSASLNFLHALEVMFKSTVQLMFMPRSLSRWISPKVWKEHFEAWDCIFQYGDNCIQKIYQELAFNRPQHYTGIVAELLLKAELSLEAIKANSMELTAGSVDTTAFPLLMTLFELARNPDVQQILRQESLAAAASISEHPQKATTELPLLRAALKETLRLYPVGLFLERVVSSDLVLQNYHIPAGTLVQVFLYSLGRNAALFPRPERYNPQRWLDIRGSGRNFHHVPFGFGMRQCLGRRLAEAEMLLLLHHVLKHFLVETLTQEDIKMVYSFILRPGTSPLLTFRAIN
The experiment in a line: Inhibition of human CYP11B2 expressed in hamster V79 MZh cells at 500 nM. The note with it: V79MZh. In kind it is cell-based.

The target of a further series is Cytochrome P450 2C19 (Homo sapiens, UniProt P33261). In words: Inhibition of human recombinant CYP2C19 expressed in baculovirus-infected insect microsomes. In kind it is ADME, Microsome. The conditions noted are these: read-out: IC50.
Series [4] in a line: Tmax in Wistar rat at 25 mg/kg, po. On the set-up: dose 25 mg/kg, route oral. In kind it is ADME, organism-based. The conditions noted are these: in vivo.
A further series concerns the target Cytochrome P450 2D6 (Homo sapiens, UniProt P10635). In words: Inhibition of human recombinant CYP2D6 expressed in baculovirus-infected insect microsomes. Type of series: ADME, Microsome.
Series [5] in a line: AUC (0 to infinity) in Wistar rat at 25 mg/kg, po. Type of series: ADME, organism-based. On the set-up: time infinity, dose 25 mg/kg, route oral. The conditions noted are these: plasma.
The subject of series [6] is Rattus norvegicus. The experiment in a line: Plasma concentration in Wistar rat at 25 mg/kg, po after 0.5 to 8 hrs. In kind it is ADME, organism-based. The conditions noted are these: in vivo. On the set-up: dose 25 mg/kg, route oral.
Series [7] in a line: Cmax in Wistar rat at 25 mg/kg, po. On the set-up: dose 25 mg/kg, route oral. The conditions noted are these: in vivo. In kind it is ADME, organism-based.
Series [8] concerns Rattus norvegicus. In words: Reduction of ACTH-induced aldosterone level in Wistar rat plasma at 20 mg/kg, iv administered 16 hrs after ACTH challenge after 0.5 to 3 hrs. On the set-up: scale not given: the % may be the effect or the level left.
A short description of series [9]: Terminal half life in Wistar rat at 5 mg/kg, po by cassette dosing. In kind it is ADME, organism-based. Set-up: dose 5 mg/kg, route oral. The note with it: in vivo, read-out: beta t1/2 (converted).
A short description of series [10]: Tmax in Wistar rat at 5 mg/kg, po by cassette dosing. In kind it is ADME, organism-based. On the set-up: dose 5 mg/kg, route oral. The conditions noted are these: in vivo.
Series [11] is described as follows: Cmax in Wistar rat at 5 mg/kg, po by cassette dosing. Type of series: ADME, organism-based. On the set-up: dose 5 mg/kg, route oral. The note with it: in vivo.
Series [12] in a line: AUC (0 to infinity) in Wistar rat at 5 mg/kg, po by cassette dosing. Type of series: ADME, organism-based. On the set-up: time infinity, dose 5 mg/kg, route oral. The note with it: plasma.
A short description of series [13]: Protein binding in human plasma at 3 uM after 1 hr. In kind it is ADME, cell-free. The note with it: read-out: PPB (converted).
For a further series, the system named is U-937. In words: Cytotoxicity against human U937 cells assessed as reduction of survival fraction at >100 uM by fluorimetric alamar blue assay. Type of series: cell-based.
Series [14] in a line: Protein binding in rat plasma at 3 uM after 1 hr. In kind it is ADME, cell-free. The conditions noted are these: read-out: PPB (converted).

As usually defined, the IC50 is the concentration that inhibits the measured activity by half. Broadly, the inhibition is the share of the control response that was lost under treatment. As a reminder, the Tmax is the time from dosing to the highest level. Broadly, the AUC(0-inf) is the area under the concentration-time curve extrapolated to infinity. As usually defined, the Cmax is the highest concentration seen after dosing.

Chain of Cytochrome P450 2D6 (P10635 whole entry): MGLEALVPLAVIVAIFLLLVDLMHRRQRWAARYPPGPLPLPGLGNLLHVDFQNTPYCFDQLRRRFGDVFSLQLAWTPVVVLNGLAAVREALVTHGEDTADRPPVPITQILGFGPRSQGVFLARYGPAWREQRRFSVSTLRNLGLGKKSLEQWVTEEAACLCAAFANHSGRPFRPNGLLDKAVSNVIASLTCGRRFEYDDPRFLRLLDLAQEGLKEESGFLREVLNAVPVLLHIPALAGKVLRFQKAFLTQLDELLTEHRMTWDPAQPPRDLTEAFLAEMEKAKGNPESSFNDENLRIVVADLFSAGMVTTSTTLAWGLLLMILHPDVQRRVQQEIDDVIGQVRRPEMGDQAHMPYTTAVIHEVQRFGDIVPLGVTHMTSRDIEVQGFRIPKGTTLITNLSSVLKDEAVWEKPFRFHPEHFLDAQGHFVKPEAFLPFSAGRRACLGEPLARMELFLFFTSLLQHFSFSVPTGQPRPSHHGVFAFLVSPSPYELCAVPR
Chain of Cytochrome P450 2C19 (P33261 whole entry): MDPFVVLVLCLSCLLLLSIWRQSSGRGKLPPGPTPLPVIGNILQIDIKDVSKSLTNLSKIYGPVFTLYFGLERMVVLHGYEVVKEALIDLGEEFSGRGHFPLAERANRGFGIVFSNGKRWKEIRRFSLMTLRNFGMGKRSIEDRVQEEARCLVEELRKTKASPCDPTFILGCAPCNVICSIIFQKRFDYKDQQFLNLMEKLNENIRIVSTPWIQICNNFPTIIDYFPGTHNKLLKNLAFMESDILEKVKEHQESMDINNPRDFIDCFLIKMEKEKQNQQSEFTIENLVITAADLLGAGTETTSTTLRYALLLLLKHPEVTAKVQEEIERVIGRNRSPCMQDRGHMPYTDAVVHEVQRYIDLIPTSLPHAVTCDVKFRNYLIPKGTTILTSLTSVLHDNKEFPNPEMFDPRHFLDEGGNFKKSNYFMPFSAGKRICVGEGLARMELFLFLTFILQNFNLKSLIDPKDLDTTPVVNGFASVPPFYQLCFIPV

Regarding `O=C1CCc2cc(-c3cncc4ccccc34)ccc2N1`, the Ratio IC50 in the series listed under Homo sapiens was 187. Further, the IC50 was 0.033 µM in series [1], 9.2 µM at Cytochrome P450 2C19 and < 50 µM at Cytochrome P450 2D6 (read-out: IC50). For the same molecule, the half-life in [2] is 2.9 h. This molecule also displayed an inhibition at 0.5 µM in series [3] of 94%. Further, the Tmax in series [4] is 2 h. The molecule also yielded an AUC(0-inf) in series [5] of 1660 ng·h/mL. The molecule also gave a Cp in the series with Rattus norvegicus [6] of 90 ng/mL. The Cmax in series [7] amounted to 134 ng/mL. In the series with Rattus norvegicus [8], this molecule came in with an Activity of 36%.

In the case of `COc1cncc(-c2ccc3c(c2)CCC(=O)C3)c1`, in the series filed under Homo sapiens, the Ratio IC50 stood at 106. The half-life in series [9] is 3.9 h. For the same molecule, in series [10], the Tmax came out at 4 h. Moreover, the figures for the IC50 (in series [1]; on Cytochrome P450 2C19; on Cytochrome P450 2D6) were 0.191 µM, 45.4 µM and < 200 µM, respectively. In series [11], the peak level (Cmax) was 35 ng/mL. This molecule also registered an AUC(0-inf) in series [12] of 212 ng·h/mL. The molecule also registered an inhibition at 0.5 µM in series [3] of 94%.

In the case of `O=C1CCc2cc(-c3cccnc3)ccc2C1`, the Ratio IC50 in the series filed under Homo sapiens came out at 496. The half-life in [9] is 3.5 h. Also, the Tmax in series [10] is 4 h. The half-inhibitory concentration (IC50) was determined as 3.96 µM in series [1], 41.5 µM at Cytochrome P450 2C19 and 171 µM at Cytochrome P450 2D6 (read-out: IC50). Further, in series [11], the highest level (Cmax) was 104 ng/mL. Also, the figures for the fraction unbound at 1 h, 3 µM in series [13] and in [14] were 0.76 and 0.75, respectively. In series [12], this molecule gave an AUC(0-inf) of 727 ng·h/mL. Also, the inhibition at 0.5 µM in [3] stood at 97%. The Activity result in the series on U-937 was “Toxic”.

(Values after ChEMBL document CHEMBL1151717, “In vivo active aldosterone synthase inhibitors with improved selectivity: lead optimization providing a series of pyridine substituted 3,4-dihydro-1H-quinolin-2-one derivatives” (J Med Chem, 2008).)
